This note sets out measurements from patent publication US12252524B2, “GIP/GLP1 co-agonist compounds” (Eli Lilly and Company, priority 2018, dated 2025).

Numbered stars: 1 amine (or outer) side, 2 acyl side, 3 side chain; on linkers, the order of the positions; unused ones are H or OH. Square brackets hold non-standard residues; d marks the D form. Side chains are listed from the residue outwards. Peptide text beside a SMILES is read from it. * marks the point of attachment. C18 diacid = O=C(O)CCCCCCCCCCCCCCCCC(=O)*; γGlu = O=C(O)[C@H](CCC(=O)[*:2])N[*:1]; AEEA = NCCOCCOCC(=O)O; Aib = CC(C)(N)C(=O)O

For orientation: Ki means a dissociation constant, usually derived from enzyme kinetics or from competition with a known ligand.

One series deals with T1, human GIP receptor (Homo sapiens, UniProt P48546).
T1 construct: expressed in transfected cells; crude membranes
T1 sequence (P48546 22-466): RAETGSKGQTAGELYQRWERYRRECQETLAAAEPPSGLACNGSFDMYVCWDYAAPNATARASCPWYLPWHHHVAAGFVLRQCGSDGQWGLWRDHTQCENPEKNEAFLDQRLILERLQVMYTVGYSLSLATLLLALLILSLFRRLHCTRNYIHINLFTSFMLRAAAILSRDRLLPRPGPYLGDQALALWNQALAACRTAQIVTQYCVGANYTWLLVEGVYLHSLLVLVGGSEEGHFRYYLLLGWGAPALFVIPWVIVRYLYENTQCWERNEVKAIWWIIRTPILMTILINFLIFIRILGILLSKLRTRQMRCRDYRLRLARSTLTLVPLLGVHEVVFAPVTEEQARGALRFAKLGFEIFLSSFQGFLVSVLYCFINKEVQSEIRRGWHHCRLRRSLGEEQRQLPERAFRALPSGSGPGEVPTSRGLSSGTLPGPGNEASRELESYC
Kind of series: [125I]-GIP binding (SPA), human GIP receptor. Particulars: read-out: hGIPR Ki, nM (SEM, n).

Series [1] deals with CD8+ T cell depleted peripheral blood mononuclear cells.
The target of a further series is human GLP-1R (Homo sapiens, UniProt P43220). The experiment in a line: [125I]-GLP-1 binding (SPA), human GLP-1 receptor. Further details: expressed in transfected cells; crude membranes. The conditions noted are these: read-out: hGLP1R Ki, (nM) (SEM, n). The gist of the method:
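Ki values are geometric means with SEM over independent replicates on different days, derived from IC50s fitted by four-parameter nonlinear regression. The assay used crude cell membranes in HEPES buffer, pH 7.4, containing CaCl2, MgCl2, bacitracin and TWEEN-20.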

Chain of human GLP-1R (P43220 24-463): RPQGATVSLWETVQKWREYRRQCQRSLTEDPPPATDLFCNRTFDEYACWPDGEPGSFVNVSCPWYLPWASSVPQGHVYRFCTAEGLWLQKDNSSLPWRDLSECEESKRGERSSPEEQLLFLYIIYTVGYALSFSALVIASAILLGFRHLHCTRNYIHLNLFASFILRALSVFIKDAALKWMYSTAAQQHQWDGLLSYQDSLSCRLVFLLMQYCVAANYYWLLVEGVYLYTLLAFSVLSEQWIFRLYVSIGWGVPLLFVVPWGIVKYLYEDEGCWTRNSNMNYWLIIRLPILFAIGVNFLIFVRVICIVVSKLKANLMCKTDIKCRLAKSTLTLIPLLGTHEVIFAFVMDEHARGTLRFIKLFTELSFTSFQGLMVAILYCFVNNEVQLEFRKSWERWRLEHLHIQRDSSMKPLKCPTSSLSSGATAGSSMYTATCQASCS

As to `CC[C@H](C)[C@H](NC(=O)[C@H](CC(C)C)NC(=O)[C@H](Cc1ccc(O)cc1)NC(=O)[C@H](CCC(=O)O)NC(=O)[C@@H](NC(=O)[C@H](Cc1ccccc1)NC(=O)[C@H](C)NC(=O)C(C)(C)NC(=O)[C@H](CCC(N)=O)NC(=O)[C@H](C)NC(=O)[C@H](CCCCNC(=O)COCCOCCNC(=O)COCCOCCNC(=O)CC[C@H](NC(=O)CCCCCCCCCCCCCCCCC(=O)O)C(=O)O)NC(=O)[C@H](CCCCN)NC(=O)[C@H](CC(=O)O)NC(=O)[C@H](CC(C)C)NC(=O)[C@H](CC(C)C)NC(=O)[C@@H](NC(=O)[C@H](CO)NC(=O)[C@H](Cc1ccc(O)cc1)NC(=O)[C@H](CC(=O)O)NC(=O)[C@H](CO)NC(=O)[C@@H](NC(=O)[C@H](Cc1ccccc1)NC(=O)[C@@H](NC(=O)CNC(=O)[C@H](CCC(=O)O)NC(=O)C(C)(C)NC(=O)[C@@H](N)Cc1ccc(O)cc1)[C@@H](C)O)[C@@H](C)O)[C@@H](C)CC)[C@@H](C)CC)C(=O)N[C@@H](C)C(=O)NCC(=O)NCC(=O)N1CCC[C@H]1C(=O)N[C@@H](CO)C(=O)N[C@@H](CO)C(=O)NCC(=O)N[C@@H](C)C(=O)N1CCC[C@H]1C(=O)N1CCC[C@H]1C(=O)N1CCC[C@H]1C(=O)N[C@@H](CO)C(N)=O` [Example 316] (H-Y[Aib]EGTFTSDYSILLDKK([AEEA-AEEA-γGlu-C18 diacid])AQ[Aib]AFIEYLIAGGPSSGAPPPS-NH2), the Ki at human GIP receptor was 0.0418 nM; at human GLP-1R, 0.957 nM. Further, in series [1], the “frequency of positive CD+ T cell response (CDI>2.5)” value is “low”.
